Entries after “also recorded” stand apart in the source; their conditions may differ.
Tests used:
[1] = target: norepinephrine transporter (NET) (Homo sapiens, UniProt P23975); conditions: 10^−7 M to 10^−3 M, 30 minutes, HEK-hNET cells
[2] = target: T1, serotonin transporter (SERT) (Homo sapiens, UniProt P31645)
[3] = target: T1, serotonin transporter (SERT); test: cell-based
NET protein expression = test: Immunoblotting of NET protein expression in HEK-hNET cells; assay type: cell-based, human; conditions: 10^−6 M, 24 hours

Chain of norepinephrine transporter (NET) (P23975 whole entry): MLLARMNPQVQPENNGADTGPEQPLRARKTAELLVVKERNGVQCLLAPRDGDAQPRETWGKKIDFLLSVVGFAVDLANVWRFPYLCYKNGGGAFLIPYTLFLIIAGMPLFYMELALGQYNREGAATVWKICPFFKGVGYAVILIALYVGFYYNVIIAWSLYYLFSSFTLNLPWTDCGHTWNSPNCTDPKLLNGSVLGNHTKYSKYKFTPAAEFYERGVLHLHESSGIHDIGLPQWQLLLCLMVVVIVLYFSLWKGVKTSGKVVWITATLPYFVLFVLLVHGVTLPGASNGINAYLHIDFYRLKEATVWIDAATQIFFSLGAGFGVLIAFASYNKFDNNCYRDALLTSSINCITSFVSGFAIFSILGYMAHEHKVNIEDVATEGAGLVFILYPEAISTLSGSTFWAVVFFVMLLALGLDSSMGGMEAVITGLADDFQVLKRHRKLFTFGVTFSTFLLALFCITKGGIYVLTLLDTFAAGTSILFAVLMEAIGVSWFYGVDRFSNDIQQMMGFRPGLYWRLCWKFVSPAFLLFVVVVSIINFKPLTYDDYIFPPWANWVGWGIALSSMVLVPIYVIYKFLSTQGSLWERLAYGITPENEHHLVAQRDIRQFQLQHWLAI
T1 sequence (P31645 whole entry): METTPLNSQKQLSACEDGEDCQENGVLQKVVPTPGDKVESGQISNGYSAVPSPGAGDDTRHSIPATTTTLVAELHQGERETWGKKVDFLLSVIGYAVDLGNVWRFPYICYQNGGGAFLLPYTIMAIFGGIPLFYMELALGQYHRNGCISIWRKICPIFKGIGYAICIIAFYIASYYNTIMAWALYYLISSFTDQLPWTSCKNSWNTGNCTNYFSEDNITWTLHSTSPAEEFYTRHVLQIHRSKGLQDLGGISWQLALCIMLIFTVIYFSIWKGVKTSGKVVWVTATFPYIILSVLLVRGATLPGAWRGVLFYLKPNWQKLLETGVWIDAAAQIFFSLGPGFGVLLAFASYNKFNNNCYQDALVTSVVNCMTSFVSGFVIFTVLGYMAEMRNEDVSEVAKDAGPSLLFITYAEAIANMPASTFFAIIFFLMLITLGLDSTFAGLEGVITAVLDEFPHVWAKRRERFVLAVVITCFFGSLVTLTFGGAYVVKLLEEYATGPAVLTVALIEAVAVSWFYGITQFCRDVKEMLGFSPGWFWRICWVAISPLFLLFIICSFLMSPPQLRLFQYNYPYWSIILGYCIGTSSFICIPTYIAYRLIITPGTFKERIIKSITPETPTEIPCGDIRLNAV

SMILES | Effect on NET function ([3H]-NE uptake) [1] | Effect on SERT function ([3H]-5-HT uptake) [2] | EC50 [3] [mM] | Change in NET protein expression in response to chronic desipramine treatment (NET protein expression)
CCCC(C)C1(CC)C(=O)NC(=S)NC1=O (stereo not shown) [Thiopental, thiopental] | failed to have any effect; also recorded: no effect; also recorded: No evidence of inhibition | failed to have any effect; also recorded: no effect | > 50 | –
CNCCCN1c2ccccc2CCc2ccccc21 [desipramine] | – | – | – | no changes

— PMC2605271 (Journal of clinical neuroscience : official journal of the …, 2008)
